Type in all cases: cell-based
Test [1] has as its system Pseudomonas aeruginosa XNWB 0008. Put plainly: MIC assay of test compounds combined with imipenem (4 μg/mL). The note with it: imipenem 4 μg/mL fixed. An outline of the steps: (§1)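 We recorded each combination MIC according to CLSI after culturing plates at 35±2 °C for 16-20 h. The inoculum consisted of colonies suspended in 0.9% NaCl (OD600 0.1-0.15) and diluted 300-fold with 1.1×CAMHB, mixed with compound dilutions and the partner β-lactam.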

Test [2] has as its system Klebsiella pneumoniae XNWB 0004. The test is described as above. The settings on record: imipenem 4 μg/mL fixed. In short, it runs like this: as §1
For test [3], the system named is Klebsiella pneumoniae XNWB 0001. The test is described as above. The settings on record: imipenem 4 μg/mL fixed. An outline of the steps:
as §1

In test [4] the test system is Klebsiella pneumoniae XNWB 0002. The test is described as above. The note with it: imipenem 4 μg/mL fixed. An outline of the steps: as §1
Test [5] relates to Klebsiella pneumoniae XNWB 0005. Described as above. The note with it: imipenem 4 μg/mL fixed. An outline of the steps:
as §1

The test system of test [6] is Klebsiella pneumoniae XNWB 0006. Described as above. The settings on record: imipenem 4 μg/mL fixed. An outline of the steps: as §1
In test [7] the test system is Acinetobacter baumannii XNWB 0007. The test is described as above. The note with it: imipenem 4 μg/mL fixed. In short, it runs like this:
as §1

Test [8] has as its system Klebsiella pneumoniae XNWB 0003. Described as above. The note with it: imipenem 4 μg/mL fixed. In short, it runs like this: as §1
For test [9], the system named is Escherichia coli XNWB 0010. Description: MIC assay of test compounds combined with ampicillin (8 μg/mL). The settings on record: ampicillin 8 μg/mL fixed. The method, then:
(§2) The bacterial strains used for the minimum inhibitory concentration (MIC) test were frozen in a −80° C. ULT freezer and thawed 2 days before use. A small amount of frozen bacterial strains were scraped using a sterile inoculating loop, streaked onto a TSA solid culture dish for inoculation, and then cultured for 20-24 h at 35±2° C. in a normal atmospheric environment.
(§3) 5-10 colonies with similar morphology were picked from the culture dish using a sterile inoculating loop and then re-streaked onto a suitable solid culture dish. Then the dish was placed into a normal incubator for culture for 20-24 h at 35±2° C.
(§4) 5-10 single bacterial colonies were picked from the solid culture dish, resuspended in 500 μL of 0.9% NaCl, and adjusted to an OD600 of 0.1-0.15 with a spectrophotometer.
(§5) The bacteria were then diluted 300-fold with 1.1×CAMHB.
(§6) Test compounds of columns A-H: having a highest final test concentration of 64 μg/mL or 32 μg/mL, 2-fold diluted.
(§7) Dilution of test compounds: All test compounds were dissolved and diluted in dimethylsulfoxide (DMSO). 170 μL of 3.2 mg/mL (50*64 μg/mL) compound was transferred to wells (A1-H1) of column 1 of a dilution master plate and then 85 μL of DMSO was transferred to wells of other columns. Each compound was diluted 2-fold in sequence (i.e., 85 μL of compound was pipetted from column 1 into column 2 and mixed uniformly, 85 μL of compound was pipetted from column 2 into column 3 and mixed uniformly, then 85 μL of compound was pipetted from column 3 into column 4 and mixed uniformly, and so on until the dilution was done in column 11).
(§8) Preparation of an additive of ampicillin: Ampicillin was dissolved in ddH2O. 30 μL of 100 μg/mL (12.5×8 μg/mL) ampicillin was transferred to columns 1-11 of an additive plate, followed by the addition of 30 μL of ddH2O to column 12.
(§9) 2 μL of each compound in the dilution master plate of the test compounds was transferred to the corresponding well of the assay plates. In the mean time, 2 μL of 100% DMSO was transferred to the compound-free wells (GC and SC wells). (1) 8 μL of imipenem in the additive plate of imipenem was transferred to the corresponding wells of the assay plates; (2) 8 μL of ceftazidime in the additive plate of ceftazidime was transferred to the corresponding wells of the assay plates; (3) 8 μL of ampicillin in the additive plate of ampicillin was transferred to the corresponding wells of the assay plates.
(§10) 90 μL of corresponding bacterial inocula were added to wells (except for SC wells) of the assay plates.
(§11) After addition, the 6 assay plates were covered by sterile covers. The mixtures in the assay plates were centrifuged by a centrifuge at 1000 rpm for 30 s, and mixed uniformly by oscillating with a microplate oscillator at 800 rpm for 1 min, and then cultured in a common incubator for 16-20 h at 35±2° C.
(§12) The minimum inhibitory concentration of each compound was recorded by reference to guidelines from the Clinical and Laboratory Standards Institute.
(§13) The minimum inhibitory concentrations of the compounds of the present invention and antibiotics (imipenem, ceftazidime, and ampicillin) against 11 strains of bacteria were tested in this study by reference to the medium microdilution method as indicated by the Clinical and Laboratory Standards Institute. The effect of the test compounds in combination with imipenem, ceftazidime, and ampicillin was also tested. Compounds were diluted two-fold in 96-well plates from the highest detection concentration of 64 μg/mL. The test compounds were tested in combination with a fixed concentration of imipenem (4 μg/mL), ceftazidime (8 μg/mL), and ampicillin (8 μg/mL). The bacterial inocula in the assay plates were resuscitated from TSA and diluted in CAMHB, while growth controls (GC wells) and sterile controls (SC wells) were set up in the assay plates. […]

The subject of test [10] is Escherichia coli XNWB 0009. Described as above. The settings on record: ampicillin 8 μg/mL fixed. The protocol:
as §2, §3, §4, §5, §6, §7, §8, §9, §10, §11, §12, §13

Test [11] concerns Enterobacter aerogenes XNWB 0011. Described as above. The settings on record: ampicillin 8 μg/mL fixed. The protocol:
as §2, §3, §4, §5, §6, §7, §8, §9, §10, §11, §12, §13

The subject of test [12] is Pseudomonas aeruginosa XNWB 0008. Description: MIC assay of test compounds combined with ceftazidime (8 μg/mL). The settings on record: ceftazidime 8 μg/mL fixed. An outline of the steps: as §1
Test [13] relates to Klebsiella pneumoniae XNWB 0004. The description is as above. The settings on record: ceftazidime 8 μg/mL fixed. In short, it runs like this: as §1
Test [14] relates to Klebsiella pneumoniae XNWB 0001. The description is as above. The note with it: ceftazidime 8 μg/mL fixed. In short, it runs like this:
as §1

The subject of test [15] is Klebsiella pneumoniae XNWB 0002. The test is described as above. The settings on record: ceftazidime 8 μg/mL fixed. An outline of the steps: as §1
Test [16] deals with Klebsiella pneumoniae XNWB 0005. The description is as above. The note with it: ceftazidime 8 μg/mL fixed. In short, it runs like this:
as §1

Test [17] relates to Klebsiella pneumoniae XNWB 0006. Described as above. The settings on record: ceftazidime 8 μg/mL fixed. An outline of the steps:
as §1

Test [18] deals with Acinetobacter baumannii XNWB 0007. The test is described as above. The settings on record: ceftazidime 8 μg/mL fixed. An outline of the steps: as §1
Test [19] concerns Klebsiella pneumoniae XNWB 0003. Described as above. The settings on record: ceftazidime 8 μg/mL fixed. An outline of the steps: as §1

Here are results for three molecules from patent US11078202B2, “β-lactamase inhibitor and use thereof” (priority 2018, dated 2021).

Counter-ions that a name gives are not always drawn.

Regarding `O=C1N2C[C@H](N1OS(=O)(=O)O)C1(CC1)C[C@H]2c1cc(C2CCNCC2)on1` [Example 43, (1R,4S)-6-oxo-4-(5-(piperidin-4-yl)isoxazol-3-yl)-5,7-diazaspiro[bicyclo[3.2.1]octane-2,1′-cyclopropan]-7-yl sulfate], the “The minimum concentration of test compounds combined with imipenem (4 μg/mL) for bacteriostasis” value in [1], in test [2], in [3], in [4], in test [5] and in test [6] was “A (A: <8 μg/mL)” each time. Besides, the “The minimum concentration of test compounds combined with imipenem (4 μg/mL) for bacteriostasis” value in test [7] is on record as “C (C: 16-128 μg/mL)”; in [8], “A (A: <8 μg/mL)”. In addition, the “The minimum concentration of test compounds combined with ampicillin (8 μg/mL) for bacteriostasis” value in test [9] is recorded as “A (A: <8 μg/mL)”; in [10], “A (A: <8 μg/mL)”; in test [11], “B (B: 8-16 μg/mL)”. Further, the “The minimum concentration of test compounds combined with ceftazidime (8 μg/mL) for bacteriostasis” value is given as “B (B: 8-16 μg/mL)” in test [12]; “B (B: 8-16 μg/mL)” in [13]; “A (A: <8 μg/mL)” in test [14]; “A (A: <8 μg/mL)” in test [15]; “A (A: <8 μg/mL)” in test [16]; “A (A: <8 μg/mL)” in [17]. Also, the “The minimum concentration of test compounds combined with ceftazidime (8 μg/mL) for bacteriostasis” value in test [18] is on record as “C (C: 16-128 μg/mL)”; in [19], “B (B: 8-16 μg/mL)”.

On to `N=C(N)NCC1(c2nnc([C@@H]3CC4(CC4)[C@@H]4CN3C(=O)N4OS(=O)(=O)O)o2)CC1` [Example 13, (1R,4S)-4-(5-(1-(guanidinomethyl)cyclopropyl)-1,3,4-oxadiazol-2-yl)-6-oxo-5,7-diazaspiro[bicyclo[3.2.1]octane-2,1′-cyclopropan]-7-yl sulfate], for which the “The minimum concentration of test compounds combined with imipenem (4 μg/mL) for bacteriostasis” value in test [1], in test [2], in test [3], in test [4], in test [5] and in [6] was “A (A: <8 μg/mL)” in each case. The “The minimum concentration of test compounds combined with imipenem (4 μg/mL) for bacteriostasis” value in [7] is recorded as “C (C: 16-128 μg/mL)”; in test [8], “A (A: <8 μg/mL)”. Moreover, the “The minimum concentration of test compounds combined with ampicillin (8 μg/mL) for bacteriostasis” value in [9], in [10] and in test [11] was “A (A: <8 μg/mL)” throughout. For the same molecule, the “The minimum concentration of test compounds combined with ceftazidime (8 μg/mL) for bacteriostasis” value was “B (B: 8-16 μg/mL)” in test [12]; “B (B: 8-16 μg/mL)” in test [13]; “A (A: <8 μg/mL)” in test [14]; “A (A: <8 μg/mL)” in test [15]; “A (A: <8 μg/mL)” in test [16]; “A (A: <8 μg/mL)” in test [17]. Moreover, the “The minimum concentration of test compounds combined with ceftazidime (8 μg/mL) for bacteriostasis” value is on record as “B (B: 8-16 μg/mL)” in test [18] and “A (A: <8 μg/mL)” in test [19].

On to `NCCc1nnc([C@@H]2CC3(CC3)[C@@H]3CN2C(=O)N3OS(=O)(=O)O)o1` [Example 4, (1R,4S)-4-(5-(2-aminoethyl)-1,3,4-oxadiazol-2-yl)-6-oxo-5,7-diazaspiro[bicycle[3.2.1]octane-2,1′-cyclopropan]-7-yl sulfate], for which the “The minimum concentration of test compounds combined with imipenem (4 μg/mL) for bacteriostasis” value in test [1], in [2], in test [3], in [4], in test [5] and in [6] was “A (A: <8 μg/mL)” throughout. The “The minimum concentration of test compounds combined with imipenem (4 μg/mL) for bacteriostasis” value is given as “B (B: 8-16 μg/mL)” in test [7] and “A (A: <8 μg/mL)” in test [8]. Moreover, the “The minimum concentration of test compounds combined with ampicillin (8 μg/mL) for bacteriostasis” value in test [9] is listed as “A (A: <8 μg/mL)”; in test [10] it was “A (A: <8 μg/mL)”; in test [11], “B (B: 8-16 μg/mL)”. Besides, the “The minimum concentration of test compounds combined with ceftazidime (8 μg/mL) for bacteriostasis” value in [12] is reported as “C (C: 16-128 μg/mL)”; in [13], “A (A: <8 μg/mL)”; in test [14] it was “A (A: <8 μg/mL)”; in test [15], “A (A: <8 μg/mL)”; in [16] it was “A (A: <8 μg/mL)”; in [17] it was “A (A: <8 μg/mL)”. Moreover, the “The minimum concentration of test compounds combined with ceftazidime (8 μg/mL) for bacteriostasis” value in test [18] was “C (C: 16-128 μg/mL)”; in test [19], “A (A: <8 μg/mL)”.
